Some test systems named below: ACHN renal; SNB-19 CNS; M14 melanoma; MDA-MB-435; CAKI-1 renal; HL-60(TB) leukemia; SNB-75 CNS; NCI-H460 lung; RPMI-8226 leukemia; HOP-92 NSCLC.
Common to all, as to assay: NCI tumour cell line growth inhibition, 48 h

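Following 48 hours of exposure in 96-well plates, responses at five concentrations were used to interpolate endpoints linearly. GI50 = concentration required for 50% inhibition of growth. TGI: concentration producing complete growth inhibition.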 A value given as a limit tells only on which side of the number the result lay.

For `CCN(CC)CCCNc1cc(OC)c(OC)c2cccnc12`, the GI50 in the assay on ACHN renal is 2.61 µM; in the assay with SNB-19 CNS it was 13.1 µM; in the assay on M14 melanoma, 12.6 µM; with MDA-MB-435, 3.05 µM; with CAKI-1 renal, 2.15 µM; in the assay with HL-60(TB) leukemia it was 3.47 µM. Also, the GI50 was 3.05 µM with SNB-75 CNS, 1.47 µM with NCI-H460 lung, 11.2 µM in the assay with RPMI-8226 leukemia and 28.4 µM in the assay with HOP-92 NSCLC. In addition, the TGI in the assay with ACHN renal was found to be 46.3 µM; with SNB-19 CNS it was 45 µM; in the assay with M14 melanoma it was 37.6 µM; in the assay on MDA-MB-435, 14.4 µM; with CAKI-1 renal it was 29.7 µM; in the assay with HL-60(TB) leukemia, 6.55 µM. Moreover, the TGI with SNB-75 CNS came out at 14.8 µM; in the assay on NCI-H460 lung, 16.9 µM; in the assay on RPMI-8226 leukemia, 40.7 µM; in the assay on HOP-92 NSCLC, 62.8 µM.
`CC(=N\O)/C(C)=N/O.CC(=N\O)/C(C)=N/O.[Fe].[NH2-].c1c[nH]cn1`: the GI50 in the assay on ACHN renal, with SNB-19 CNS, with M14 melanoma, with MDA-MB-435, in the assay with CAKI-1 renal and in the assay on HL-60(TB) leukemia was above 100 µM in each case. Moreover, the GI50 in the assay on SNB-75 CNS was above 100 µM; in the assay on NCI-H460 lung it was above 100 µM; in the assay on RPMI-8226 leukemia, above 100 µM; in the assay on HOP-92 NSCLC, 28.6 µM. Also, the TGI in the assay with ACHN renal, with SNB-19 CNS, in the assay on M14 melanoma, in the assay with MDA-MB-435, with CAKI-1 renal and in the assay with HL-60(TB) leukemia was above 100 µM each time. Also, the TGI in the assay with SNB-75 CNS, with NCI-H460 lung, in the assay on RPMI-8226 leukemia and in the assay on HOP-92 NSCLC was above 100 µM throughout.
Consider `C(=C\c1ccc(OCC2CO2)cc1)/C1=NCOC1` (stereo not given), for which the GI50 is 5.47 µM with ACHN renal; 4.73 µM in the assay with SNB-19 CNS; 14.5 µM with M14 melanoma; 11 µM in the assay with MDA-MB-435; 16.3 µM in the assay on CAKI-1 renal; 2.35 µM in the assay with HL-60(TB) leukemia. The GI50 was 16.6 µM in the assay with SNB-75 CNS, 19.9 µM with NCI-H460 lung, 13.1 µM in the assay with RPMI-8226 leukemia and 1.41 µM with HOP-92 NSCLC. Also, the TGI with ACHN renal is 19.5 µM; with SNB-19 CNS, 29.2 µM; in the assay with M14 melanoma, 88.5 µM; in the assay on MDA-MB-435 it was 37.3 µM; in the assay on CAKI-1 renal, 40.8 µM; in the assay with HL-60(TB) leukemia it was 9.16 µM. In addition, the TGI stood at 31.6 µM in the assay with SNB-75 CNS, 57.7 µM in the assay with NCI-H460 lung, 37.2 µM in the assay with RPMI-8226 leukemia and 13.2 µM with HOP-92 NSCLC.
Turning to `c1ccc2c(c1)[nH]c1c3ccccc3sc21`, the TGI in the assay with ACHN renal, in the assay on SNB-19 CNS, with M14 melanoma, with MDA-MB-435, in the assay with CAKI-1 renal and in the assay on HL-60(TB) leukemia was above 100 µM throughout. The TGI in the assay on SNB-75 CNS, in the assay on NCI-H460 lung, in the assay with RPMI-8226 leukemia and in the assay on HOP-92 NSCLC was above 100 µM throughout.
In the case of `Cn1cc(-c2nc(-c3cn(C)c4ncccc34)cs2)c2ccccc21`, the GI50 is 3.67 µM with ACHN renal; 3.68 µM in the assay on SNB-19 CNS; 0.955 µM in the assay on M14 melanoma; 0.292 µM in the assay on MDA-MB-435; 0.972 µM with CAKI-1 renal; 1.92 µM in the assay with HL-60(TB) leukemia. The GI50 was 1.44 µM in the assay on SNB-75 CNS, 0.858 µM in the assay on NCI-H460 lung, 3.72 µM with RPMI-8226 leukemia and 1.68 µM in the assay on HOP-92 NSCLC. Also, the TGI in the assay on ACHN renal is 79.4 µM; in the assay with SNB-19 CNS it was 25.2 µM; with M14 melanoma, 20.4 µM; in the assay on MDA-MB-435, 1.15 µM; with CAKI-1 renal it was above 100 µM; in the assay with HL-60(TB) leukemia it was above 100 µM. Moreover, the TGI in the assay with SNB-75 CNS was 4.83 µM; in the assay on NCI-H460 lung, 15.9 µM; with RPMI-8226 leukemia it was above 100 µM; with HOP-92 NSCLC it was 9.39 µM.
Regarding `CCOC(=O)c1ccc(NC(=O)c2cccc(NC3=C(Cl)C(=O)N(Cc4ccccc4)C3=O)c2)cc1`, the GI50 in the assay on ACHN renal is above 100 µM; with SNB-19 CNS, above 100 µM; in the assay with M14 melanoma, above 100 µM; in the assay with MDA-MB-435 it was above 100 µM; with CAKI-1 renal, above 100 µM; in the assay on HL-60(TB) leukemia, 17.2 µM. Moreover, the GI50 with SNB-75 CNS was above 100 µM; with NCI-H460 lung, above 100 µM; with RPMI-8226 leukemia it was 37.5 µM; in the assay on HOP-92 NSCLC, 78.8 µM. Further, the TGI in the assay with ACHN renal is above 100 µM; in the assay with SNB-19 CNS, above 100 µM; with M14 melanoma it was above 100 µM; with MDA-MB-435, above 100 µM; in the assay on CAKI-1 renal it was above 100 µM; in the assay with HL-60(TB) leukemia it was 45.9 µM. For the same molecule, the TGI in the assay with SNB-75 CNS, in the assay on NCI-H460 lung, in the assay on RPMI-8226 leukemia and in the assay with HOP-92 NSCLC was above 100 µM each time.

Values taken from PubChem BioAssay (NCI).
